{
  "source": "patent US6355799B1",
  "about": "“Substituted benzene compounds, process for their preparation, and herbicidal and defoliant compositions containing them” (ISK Americas Incorporated, priority 1997, dated 2002)",
  "format_in_all_cases": "in vivo",
  "key": {"[1]": {"tested_on": "green foxtail (Setaria viridis, SETVI)", "experiment": "Post-emerge test, greenhouse herbicide activity screening", "conditions": "post-emerge, 14 days after application, rating scale 0-100", "in_short": "(§1)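 Plants grown in 10 cm pots of sandy loam mix received acetone-dissolved compounds through a moving flat-fan nozzle. Doses ranged from 15 to 1000 g ai/ha. Pre-emerge pots were seeded one day earlier, post-emerge pots 8–21 days earlier. Fourteen days on, each pot was graded 0–100 for damage.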"}, "[2]": {"tested_on": "redroot pigweed (Amaranthus retroflexus, AMARE)", "experiment": "Post-emerge test, greenhouse herbicide activity screening", "conditions": "post-emerge, 14 days after application, rating scale 0-100", "in_short": "as §1"}, "[3]": {"tested_on": "barnyardgrass (Echinochloa crus-galli, ECHCG)", "experiment": "Post-emerge test, greenhouse herbicide activity screening", "conditions": "post-emerge, 14 days after application, rating scale 0-100", "in_short": "as §1"}, "[4]": {"tested_on": "ivyleaf morningglory (Ipomoea hederacea, IPOHE)", "experiment": "Post-emerge test, greenhouse herbicide activity screening", "conditions": "post-emerge, 14 days after application, rating scale 0-100", "in_short": "as §1"}, "[5]": {"tested_on": "johnsongrass (Sorghum halepense, SORHA)", "experiment": "Post-emerge test, greenhouse herbicide activity screening", "conditions": "post-emerge, 14 days after application, rating scale 0-100", "in_short": "as §1"}, "[6]": {"tested_on": "lambsquarters (Chenopodium album, CHEAL)", "experiment": "Post-emerge test, greenhouse herbicide activity screening", "conditions": "post-emerge, 14 days after application, rating scale 0-100", "in_short": "as §1"}, "[7]": {"tested_on": "sicklepod (Cassia obtusifolia, CASOB)", "experiment": "Post-emerge test, greenhouse herbicide activity screening", "conditions": "post-emerge, 14 days after application, rating scale 0-100", "in_short": "as §1"}, "[8]": {"tested_on": "large crabgrass (Digitaria sanguinalis, DIGSA)", "experiment": "Post-emerge test, greenhouse herbicide activity screening", "conditions": "post-emerge, 14 days after application, rating scale 0-100", "in_short": "as §1"}, "[9]": {"tested_on": "velvetleaf (Abutilon theophrasti, ABUTH)", "experiment": "Post-emerge test, greenhouse herbicide activity screening", "conditions": "post-emerge, 14 days after application, rating scale 0-100", "in_short": "as §1"}, "[10]": {"tested_on": "upland rice (Oryza sp., var. Tebonnet, RICE)", "experiment": "Pre-emerge test, crop safety", "conditions": "rated 14 days after application, 0 = no damage, 100 = complete death", "in_short": "(§2)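 Applied at 15–1000 g ai/ha from acetone in 187 l/ha spray volume. Post-emergence applications included 0.25% v/v non-ionic surfactant and reached plants sown 8–21 days before. Pre-emergence applications were incorporated by surface watering. Efficacy or crop damage was rated on a 0–100 scale after 14 days.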"}, "[11]": {"tested_on": "field corn (Zea mays L., var. Dekalb 535, CORN)", "experiment": "Pre-emerge test, crop safety", "conditions": "rated 14 days after application, 0 = no damage, 100 = complete death", "in_short": "as §2"}, "[12]": {"tested_on": "redroot pigweed (Amaranthus retroflexus, AMARE)", "experiment": "Pre-emerge test, greenhouse herbicide activity screening", "conditions": "rated 14 days after application, 0 = no damage, 100 = complete death", "in_short": "(§3)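 Sandy loam pots; pre-emerge: sown 1 d pre-spray, surface-watered after, then bottom-watered. Post-emerge: sown 8–21 d before, 2–3 leaf stage, + 0.25% v/v NIS, bottom-watered. Acetone, 187 l/ha track spray, 15–1000 g ai/ha. 0–100 injury score, day 14.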"}, "[13]": {"tested_on": "upland rice (Oryza sp., var. Tebonnet, RICE)", "experiment": "Post-emerge test, crop safety", "conditions": "post-emerge, 14 days after application, rating scale 0-100", "in_short": "as §3"}, "[14]": {"tested_on": "field corn (Zea mays L., var. Dekalb 535, CORN)", "experiment": "Post-emerge test, crop safety", "conditions": "post-emerge, 14 days after application, rating scale 0-100", "in_short": "as §3"}, "[15]": {"tested_on": "green foxtail (Setaria viridis, SETVI)", "experiment": "Pre-emerge test, greenhouse herbicide activity screening", "conditions": "rated 14 days after application, 0 = no damage, 100 = complete death", "in_short": "as §3"}, "[16]": {"tested_on": "barnyardgrass (Echinochloa crus-galli, ECHCG)", "experiment": "Pre-emerge test, greenhouse herbicide activity screening", "conditions": "rated 14 days after application, 0 = no damage, 100 = complete death", "in_short": "as §3"}, "[17]": {"tested_on": "ivyleaf morningglory (Ipomoea hederacea, IPOHE)", "experiment": "Pre-emerge test, greenhouse herbicide activity screening", "conditions": "rated 14 days after application, 0 = no damage, 100 = complete death", "in_short": "as §3"}, "[18]": {"tested_on": "johnsongrass (Sorghum halepense, SORHA)", "experiment": "Pre-emerge test, greenhouse herbicide activity screening", "conditions": "rated 14 days after application, 0 = no damage, 100 = complete death", "in_short": "as §3"}, "[19]": {"tested_on": "lambsquarters (Chenopodium album, CHEAL)", "experiment": "Pre-emerge test, greenhouse herbicide activity screening", "conditions": "rated 14 days after application, 0 = no damage, 100 = complete death", "in_short": "as §3"}, "[20]": {"tested_on": "sicklepod (Cassia obtusifolia, CASOB)", "experiment": "Pre-emerge test, greenhouse herbicide activity screening", "conditions": "rated 14 days after application, 0 = no damage, 100 = complete death", "in_short": "as §3"}, "[21]": {"tested_on": "large crabgrass (Digitaria sanguinalis, DIGSA)", "experiment": "Pre-emerge test, greenhouse herbicide activity screening", "conditions": "rated 14 days after application, 0 = no damage, 100 = complete death", "in_short": "as §3"}, "[22]": {"tested_on": "velvetleaf (Abutilon theophrasti, ABUTH)", "experiment": "Pre-emerge test, greenhouse herbicide activity screening", "conditions": "rated 14 days after application, 0 = no damage, 100 = complete death", "in_short": "as §3"}},
  "data": [
    {"smiles": "COc1c(Cl)cc(F)c(-n2c(=O)cc(C(F)(F)F)n(C)c2=O)c1NC(=O)c1ccc2ccccc2c1", "note": "[2-75]", "values": [
      {"measurement": "phytotoxicity rating SETVI", "setting": "[1]; 63 g ai/ha", "result": 30},
      {"measurement": "phytotoxicity rating SETVI", "setting": "[1]; 250 g ai/ha", "result": 80},
      {"measurement": "phytotoxicity rating AMARE", "setting": "[2]; 63 g ai/ha", "result": 100},
      {"measurement": "phytotoxicity rating AMARE", "setting": "[2]; 250 g ai/ha", "result": 100},
      {"measurement": "phytotoxicity rating ECHCG", "setting": "[3]; 63 g ai/ha", "result": 10},
      {"measurement": "phytotoxicity rating ECHCG", "setting": "[3]; 250 g ai/ha", "result": 50},
      {"measurement": "phytotoxicity rating IPOHE", "setting": "[4]; 63 g ai/ha", "result": 100},
      {"measurement": "phytotoxicity rating IPOHE", "setting": "[4]; 250 g ai/ha", "result": 100},
      {"measurement": "phytotoxicity rating SORHA", "setting": "[5]; 63 g ai/ha", "result": 20},
      {"measurement": "phytotoxicity rating SORHA", "setting": "[5]; 250 g ai/ha", "result": 40},
      {"measurement": "phytotoxicity rating CHEAL", "setting": "[6]; 63 g ai/ha", "result": 100},
      {"measurement": "phytotoxicity rating CHEAL", "setting": "[6]; 250 g ai/ha", "result": 100},
      {"measurement": "phytotoxicity rating CASOB", "setting": "[7]; 63 g ai/ha", "result": 100},
      {"measurement": "phytotoxicity rating CASOB", "setting": "[7]; 250 g ai/ha", "result": 100},
      {"measurement": "phytotoxicity rating DIGSA", "setting": "[8]; 63 g ai/ha", "result": 0},
      {"measurement": "phytotoxicity rating DIGSA", "setting": "[8]; 250 g ai/ha", "result": 20},
      {"measurement": "phytotoxicity rating ABUTH", "setting": "[9]; 63 g ai/ha", "result": 100},
      {"measurement": "phytotoxicity rating ABUTH", "setting": "[9]; 250 g ai/ha", "result": 100},
      {"measurement": "Pre-emerge phytotoxicity rating (0-100), crop damage, RICE", "setting": "[10]; 63 g ai/ha", "result": 30},
      {"measurement": "Pre-emerge phytotoxicity rating (0-100), crop damage, RICE", "setting": "[10]; 250 g ai/ha", "result": 80},
      {"measurement": "Pre-emerge phytotoxicity rating (0-100), crop damage, CORN", "setting": "[11]; 63 g ai/ha", "result": 0},
      {"measurement": "Pre-emerge phytotoxicity rating (0-100), crop damage, CORN", "setting": "[11]; 250 g ai/ha", "result": 0},
      {"measurement": "Pre-emerge Herbicidal Activity, phytotoxicity rating (0-100), AMARE", "setting": "[12]; 63 g ai/ha", "result": 100},
      {"measurement": "Pre-emerge Herbicidal Activity, phytotoxicity rating (0-100), AMARE", "setting": "[12]; 250 g ai/ha", "result": 100},
      {"measurement": "phytotoxicity rating RICE", "setting": "[13]; 63 g ai/ha", "result": 70},
      {"measurement": "phytotoxicity rating RICE", "setting": "[13]; 250 g ai/ha", "result": 80},
      {"measurement": "phytotoxicity rating CORN", "setting": "[14]; 63 g ai/ha", "result": 10},
      {"measurement": "phytotoxicity rating CORN", "setting": "[14]; 250 g ai/ha", "result": 15},
      {"measurement": "Pre-emerge Herbicidal Activity, phytotoxicity rating (0-100), SETVI", "setting": "[15]; 63 g ai/ha", "result": 100},
      {"measurement": "Pre-emerge Herbicidal Activity, phytotoxicity rating (0-100), SETVI", "setting": "[15]; 250 g ai/ha", "result": 100},
      {"measurement": "Pre-emerge Herbicidal Activity, phytotoxicity rating (0-100), ECHCG", "setting": "[16]; 63 g ai/ha", "result": 20},
      {"measurement": "Pre-emerge Herbicidal Activity, phytotoxicity rating (0-100), ECHCG", "setting": "[16]; 250 g ai/ha", "result": 100},
      {"measurement": "Pre-emerge Herbicidal Activity, phytotoxicity rating (0-100), IPOHE", "setting": "[17]; 63 g ai/ha", "result": 20},
      {"measurement": "Pre-emerge Herbicidal Activity, phytotoxicity rating (0-100), IPOHE", "setting": "[17]; 250 g ai/ha", "result": 60},
      {"measurement": "Pre-emerge Herbicidal Activity, phytotoxicity rating (0-100), SORHA", "setting": "[18]; 63 g ai/ha", "result": 20},
      {"measurement": "Pre-emerge Herbicidal Activity, phytotoxicity rating (0-100), SORHA", "setting": "[18]; 250 g ai/ha", "result": 60},
      {"measurement": "Pre-emerge Herbicidal Activity, phytotoxicity rating (0-100), CHEAL", "setting": "[19]; 63 g ai/ha", "result": 100},
      {"measurement": "Pre-emerge Herbicidal Activity, phytotoxicity rating (0-100), CHEAL", "setting": "[19]; 250 g ai/ha", "result": 100},
      {"measurement": "Pre-emerge Herbicidal Activity, phytotoxicity rating (0-100), CASOB", "setting": "[20]; 63 g ai/ha", "result": 100},
      {"measurement": "Pre-emerge Herbicidal Activity, phytotoxicity rating (0-100), CASOB", "setting": "[20]; 250 g ai/ha", "result": 100},
      {"measurement": "Pre-emerge Herbicidal Activity, phytotoxicity rating (0-100), DIGSA", "setting": "[21]; 63 g ai/ha", "result": 70},
      {"measurement": "Pre-emerge Herbicidal Activity, phytotoxicity rating (0-100), DIGSA", "setting": "[21]; 250 g ai/ha", "result": 100},
      {"measurement": "Pre-emerge Herbicidal Activity, phytotoxicity rating (0-100), ABUTH", "setting": "[22]; 63 g ai/ha", "result": 100},
      {"measurement": "Pre-emerge Herbicidal Activity, phytotoxicity rating (0-100), ABUTH", "setting": "[22]; 250 g ai/ha", "result": 100}
    ]}
  ]
}
